The source of these data is patent US8507440B2, “Protein kinase C peptides for use in withdrawal” (The Board of Trustees of the Leland Stanford Junior …, priority 2002, dated 2013).

Ends that are not written are not given here.

In assay [1] the test system is 7 day old and 21 day old rats. The assay can be described thus: ethanol withdrawal mechanical allodynia testing (von Frey threshold withdrawal force). The class given is in vivo, rat.
Assay [2] has as its system 7 day old and 21 day old rats. The assay can be described thus: ethanol withdrawal thermal hyperalgesia testing (paw withdrawal latency). It is filed as in vivo, rat. The settings on record: 7 day old rats; intrathecally 4 hours after 4 g/kg 15% EtOH.
Another assay deals with T1, γPKC (Rattus norvegicus, UniProt P63319).
T1 construct: from tissue; host or cells: lumbar spinal cord slices of postnatal day 7-10 Sprague-Dawley rats
It is filed as cell-based. On the procedure: Fluorescence immunocytochemical studies were performed on the spinal cord sections, as described in Example 3. The sections were incubated with an anti-γPKC antibody and an anti-neuronal antibody to identify neurons. […] Translocation of γPKC was quantified by counting the number of cells with γPKC localized to the nucleus before (control) and after application of ethanol, as well as after washing with artificial cerebrospinal fluid. […] Two to three sections per animal were counted.
Fluorescence immunocytochemical studies were performed on spinal cord sections […] from control slices (perfused with ACSF for 70 minutes) and EtOH treated slices (perfused with ACSF for 30 minutes followed by 20 min 100 mM EtOH and 20 min wash with ACSF). The sections were incubated with a rabbit anti-PKCg polyclonal antibody (1:500) overnight at 4° C. In some cord sections, a mouse anti-neuronal nuclei monoclonal antibody (NeuN, 1:750) was added to identify neurons. After several washes with ACSF, the sections were labeled for 2 hours at room temperature with fluorescein-labeled secondary antibodies (1:500). Double immunofluorescence was assessed with a laser confocal microscope.

Another assay has as its system postnatal day 7 rats. Nature of the assay: natural morphine withdrawal, mechanical allodynia and thermal hyperalgesia in vivo. Set-up: species or system rat. The settings on record: 10 μM intrathecally 2.5 hours after morphine 1 mg/kg; p<0.05 versus Tat carrier or saline. The procedure: Another study was performed to investigate the roles of PKC isozymes in natural withdrawal, which more closely resembles the clinical setting in addictive sequela. In this study, postnatal day 7 rats were given a single injection of morphine (1 mg/kg) and allowed to undergo natural withdrawal, i.e., naloxone was not administered to precipitate withdrawal. The treatment protocol is shown in FIG. 6A, where 2.5 hours after morphine delivery, εV1-2 or γV5-3 peptide inhibitors were administered intrathecally. Mechanical allodynia and thermal hyperalgesia were evaluated at hourly intervals according to the procedure described in Example 2.
To measure mechanical thresholds, rats were placed on an elevated wire mesh (2 mm openings). Von Frey hairs (Stoelting Co., WoodDale, Ill., USA) were used to elicit a cutaneous flexion withdrawal response as described by Fitzgerald et al. (Fitzgerald M., et al., PAIN […] INFANTS, CHILDREN AND ADOLESCENTS; Schetchter and Yaster, Eds., pp 11-32, Williams and Williams (Baltimore, Md.) (1993). Von Frey hairs of increasing intensity were applied three times to the plantar surface of the left hind paw until a paw withdrawal was elicited. The lowest intensity Von Frey hair required to produce a withdrawal reflex was recorded as the response threshold to a low-intensity mechanical stimulus. […]

For the next assay, the system named is isolated spinal cords. The assay can be described thus: slow ventral root potential (sVRP) of isolated spinal cord, naloxone-precipitated morphine withdrawal hyperresponsiveness. It is filed as cell-based, rat. The text has this: The slow ventral root potential (sVRP) is an electrophysiolgical measurement of nociceptive-related response in the spinal cord lasting approximately 40 seconds (Yanagisawa et al., Eur. J. Pharmacol., 106:231-239 (1984); Akagi H. et al., British J. Pharmacol., 84:663-673 (1985); Otsuka M. et al., J. Physiol., 395:255-270 (1988)). It is evoked by stimulation of a lumbar dorsal root at an intensity sufficient to activate small diameter afferents that transmit nociceptive (painful) stimuli from the periphery to the spinal cord (Lozier A. P. et al., J. Neurophysiol., 74:1001-1009 (1995)). […] Thus, the sVRP is related to pain, and its exaggeration following naloxone is a manifestation of withdrawal which translates to an increase in pain sensation in vivo.
Spinal cords from 4-7 day old rats (Charles River Laboratories) were removed and arranged for electrophysiological recording of the slow ventral root potentials (sVRP) (Woodley S. J., et al., Brain Res., 559:17-21 (1991). Briefly, pups were decapitated under halothane anesthesia and the spinal cord removed to an oxygenated artificial cerebrospinal fluid solution. A suction stimulating electrode was placed on a lumbar dorsal root and a suction recording electrode on the corresponding ipsilateral ventral root. Square wave stimuli 0.2 ms in duration were administered at a constant frequency of 1/50 seconds throughout the experiment. Test agents were applied and the responses were recorded, digitized, and area under the curve measured.
After a baseline reading of the sVRP, morphine (200 nM) was applied to the isolated spinal cords. The sVRP was again recorded to characterize the response to morphine. Naloxone (200 nM) was then applied and the sVRPs recorded.
FIGS. 2A-2D show the results after application of non-specific PKC antagonist, GF109203X (1.2 μM), and of an inhibitor specific to Ca++-dependent PKC isoforms, Go6976 (1 μM).
FIGS. 3A-3B show the results after application of the εPCK antagonist (εV1-2; SEQ ID NO:1, 2 nM), conjugated to a peptide carrier (Tat; SEQ ID NO:3) and the Tat peptide alone (2 nM; SEQ ID NO:3). FIGS. 3C-3D show the results after application of γPKC (γV5-3; SEQ ID NO:2, 4 nM) conjugated to a peptide carrier (Tat; SEQ ID NO:3) and of the Tat peptide alone (4 nm; SEQ ID NO:3).

For “RLVLAS (also: Tat peptide conjugate; listed as Homo sapiens) [γV5-3]”, the “mechanical allodynia, threshold withdrawal force” value in assay [1] (7 day old rats, 5 μL of 20 μM intrathecally 5 hours after 4 g/kg 15% EtOH i.p., 6 and 7 hour post-EtOH, versus Tat carrier) is listed as “attenuated mechanical allodynia”. In addition, the “mechanical allodynia, threshold withdrawal response” value in assay [1] (21 day old rats, 10 μL of 20 μM intrathecally 4 hours after 4 g/kg 15% EtOH i.p.) was “prevented a decrease in threshold withdrawal response”. The “thermal hyperalgesia, paw withdrawal latency” value in assay [2] is recorded as “completely prevented thermal hyperalgesia”. In addition, in the assay with γPKC (peptide applied 20 minutes prior to ethanol), the “number of cells having γPKC localized in the nucleus” value was “about 14”. Besides, in the assay with γPKC (peptide applied prior to ethanol exposure), the “block of γPKC translocation to the cytoplasm” value was “effective to block γPKC translocation to the cytoplasm”. In the assay on postnatal day 7 rats, the “mechanical allodynia and thermal hyperalgesia during natural withdrawal from morphine” value was “attenuated mechanical allodynia and thermal hyperalgesia”. For the same substance, the “effect on sVRP of inhibitor alone” value in the assay on isolated spinal cords (absence of morphine) is “did not significantly altered the sVRP”. In addition, the “block of naloxone-precipitated withdrawal hyperresponsiveness of sVRP” value in the assay with isolated spinal cords (morphine 200 nM then naloxone 200 nM, GF109203X 1.2 μM, Go6976 1 μM, εV1-2 2 nM, γV5-3 4 nM, Tat 2-4 nM) is reported as “reduced withdrawal hyperresponsiveness, but not to a significantly greater amount than the Tat carrier vehicle alone”.
